{"source": "patent US20190210973A1", "about": "“COMPOUNDS AND METHODS FOR TREATMENT OF CYSTIC FIBROSIS” (The Curators of the University of Missouri, priority 2018, published 2019)", "assay_type_in_all_cases": "cell-based", "key": {"G551D-CFTR": {"target": "T1, G551D-CFTR (Homo sapiens, UniProt P13569, G551D)", "T1 construct": "The cDNA constructs of CFTR (G551D and delF508) were co-transfected with peGFP-C3; expressed in transfected cells; host or cells: CHO cells (ATCC), transient co-transfection with pEGFP-C3 (GFP as a separate marker, not fused)", "T1 sequence (P13569 whole entry G551D, the tested form may be a part)": "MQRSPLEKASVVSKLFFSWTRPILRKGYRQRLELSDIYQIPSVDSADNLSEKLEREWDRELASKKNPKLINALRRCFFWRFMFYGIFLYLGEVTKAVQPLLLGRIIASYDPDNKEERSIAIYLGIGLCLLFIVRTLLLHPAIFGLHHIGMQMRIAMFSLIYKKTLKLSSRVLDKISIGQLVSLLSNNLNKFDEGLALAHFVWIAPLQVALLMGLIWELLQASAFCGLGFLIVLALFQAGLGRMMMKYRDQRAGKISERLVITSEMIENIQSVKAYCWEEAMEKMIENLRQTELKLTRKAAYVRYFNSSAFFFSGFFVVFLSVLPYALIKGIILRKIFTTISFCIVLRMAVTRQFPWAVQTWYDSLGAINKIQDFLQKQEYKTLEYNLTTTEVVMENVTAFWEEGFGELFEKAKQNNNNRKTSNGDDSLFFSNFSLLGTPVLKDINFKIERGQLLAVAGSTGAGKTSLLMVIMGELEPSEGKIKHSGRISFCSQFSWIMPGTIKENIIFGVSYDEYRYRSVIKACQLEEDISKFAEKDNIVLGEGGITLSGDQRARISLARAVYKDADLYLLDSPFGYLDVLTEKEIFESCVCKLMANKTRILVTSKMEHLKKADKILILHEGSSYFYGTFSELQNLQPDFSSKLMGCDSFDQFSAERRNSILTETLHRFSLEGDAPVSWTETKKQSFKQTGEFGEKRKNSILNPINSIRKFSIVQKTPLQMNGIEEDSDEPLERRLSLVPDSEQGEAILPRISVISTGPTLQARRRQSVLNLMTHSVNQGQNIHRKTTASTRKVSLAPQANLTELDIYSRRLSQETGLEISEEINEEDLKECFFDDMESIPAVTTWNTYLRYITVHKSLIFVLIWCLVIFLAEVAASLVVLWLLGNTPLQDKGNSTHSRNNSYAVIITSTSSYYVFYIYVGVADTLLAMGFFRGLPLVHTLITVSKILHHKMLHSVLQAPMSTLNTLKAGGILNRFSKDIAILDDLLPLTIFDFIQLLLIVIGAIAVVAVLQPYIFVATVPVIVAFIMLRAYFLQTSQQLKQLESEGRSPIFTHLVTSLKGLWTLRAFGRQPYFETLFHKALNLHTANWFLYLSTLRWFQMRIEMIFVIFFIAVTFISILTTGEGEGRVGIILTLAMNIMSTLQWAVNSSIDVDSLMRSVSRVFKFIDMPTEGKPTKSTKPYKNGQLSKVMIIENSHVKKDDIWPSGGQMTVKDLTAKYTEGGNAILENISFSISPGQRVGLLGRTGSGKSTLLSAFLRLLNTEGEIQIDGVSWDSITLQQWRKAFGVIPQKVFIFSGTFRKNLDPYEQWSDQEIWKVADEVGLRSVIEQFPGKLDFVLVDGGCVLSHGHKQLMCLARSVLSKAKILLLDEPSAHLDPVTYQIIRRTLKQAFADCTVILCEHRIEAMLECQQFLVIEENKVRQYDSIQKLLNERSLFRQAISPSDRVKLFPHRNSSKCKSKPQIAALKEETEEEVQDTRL", "experiment": "Patch-clamp recording of G551D-CFTR currents in excised inside-out patches of transfected CHO cells", "details": "for fold increase of G551D-CFTR currents (ILZH+ATP/IATP): single application", "source_text": "(§1) Patch-clamp is considered the gold standard for assessing directly ion channel function in real time. By attaching a glass microelectrode on the surface of a cell, it is possible to record the currents generated by channels proteins that are present in this tiny “patch” of cell membranes. Since millions of ions pass through a single ion channel pore per second, the resulting microscopic currents from a single channel protein molecule can be detected with modem patch-clamp amplifiers. As ion channels (a conductor in electricity term) are arranged in parallel in the cell membrane, it is also possible to assay a group of ion channels by monitoring macroscopic currents representing the sum of currents from individual channels. Microscopic recordings allow artisans to examine exquisitely the effects of compounds on the Po and kinetic parameters of CFTR channels; whereas macroscopic recordings provide an assay not only to quantify the overall effects of compounds on N×Po×i, but also monitor the stability of the CFTR currents in real time.\n(§2) Chinese hamster ovary (CHO) cells were grown at 37° C. in Dulbecco's modified Eagle's medium supplemented with 10% fetal bovine serum. Cells were subcultured into 35-mm tissue culture dishes 1 day before transfection. PolyFect transfection reagent (QIAGEN) was used to cotransfect CFTR cDNA and pEGFP-C3 (Takara Bio Inc.), which encodes green fluorescence proteins, into CHO cells. After transfection, cells were incubated at 27° C. for at least 2 days before electrophysiological experiments were performed.\n(§3) Glass chips carrying the transfected cells were transferred to a chamber located on the stage of an inverted microscope (IX51; Olympus). Borosilicate capillary glasses were used to make patch pipettes using a two-stage micropipette puller (PP-81, Narishige, Japan). The pipettes were polished with a homemade microforge to a resistance of 2-4 MΩ in the bath solution. Once the seal resistance reached >40 GΩ, membrane patches were excised into an inside-out mode. Subsequently, the pipette was moved to the outlet of a three-barrel perfusion system and perfused with 25 IU PKA and 2 mM ATP until the CFTR current reached a steady state. A patch-clamp amplifier (EPC10, HEKA, Germany) was used to record electrophysiological data at room temperature. The data were filtered online at 100 Hz with an eight-pole Bessel filter (LPF-8; Warner Instruments) and digitized to a computer at a sampling rate of 500 Hz. […] Membrane potential was held at −30 or −50 mV for all recordings.\n(§4) Disease-causing mutations (G551D and delF508) were made with PCR-based site-directed mutagenesis using the Pfu Ultra II (Agilent Technologies). […] The cDNA constructs of CFTR (G551D and delF508) were co-transfected with peGFP-C3 (Takara Bio Inc.) encoding the green fluorescent protein into CHO cells using PolyFect transfection reagent (QIAGEN). The transfected cells were transferred into 35 mm tissue culture dishes containing one layer of sterilized glass chips for cells to grow on. The transfected cells were incubated at 27° C. for 2-7 days before electrophysiological experiments were performed.\n(§5) All patch-clamp experiments were carried out in the excised inside-out configuration. Micropipettes made of borosilicate capillary glass were pulled with a two-stage vertical puller (Narishige) and then fire-polished with a homemade microforge to reach a pipet resistance of 2-4 MΩ when the pipettes were filled with a standard inside-out pipet solution that contains: 140 mM N-Methyl-D-glucamine-Cl (NMDG-Cl), 2 mM MgCl2, 5 mM CaCl2) and 10 mM HEPES, adjusted to pH 7.4 with NMDG."}, "delF508-CFTR [1]": {"target": "T2, delF508-CFTR (Homo sapiens, UniProt P13569, DEL508-508)", "T2 sequence (P13569 with tags, fused parts or gaps DEL508-508)": "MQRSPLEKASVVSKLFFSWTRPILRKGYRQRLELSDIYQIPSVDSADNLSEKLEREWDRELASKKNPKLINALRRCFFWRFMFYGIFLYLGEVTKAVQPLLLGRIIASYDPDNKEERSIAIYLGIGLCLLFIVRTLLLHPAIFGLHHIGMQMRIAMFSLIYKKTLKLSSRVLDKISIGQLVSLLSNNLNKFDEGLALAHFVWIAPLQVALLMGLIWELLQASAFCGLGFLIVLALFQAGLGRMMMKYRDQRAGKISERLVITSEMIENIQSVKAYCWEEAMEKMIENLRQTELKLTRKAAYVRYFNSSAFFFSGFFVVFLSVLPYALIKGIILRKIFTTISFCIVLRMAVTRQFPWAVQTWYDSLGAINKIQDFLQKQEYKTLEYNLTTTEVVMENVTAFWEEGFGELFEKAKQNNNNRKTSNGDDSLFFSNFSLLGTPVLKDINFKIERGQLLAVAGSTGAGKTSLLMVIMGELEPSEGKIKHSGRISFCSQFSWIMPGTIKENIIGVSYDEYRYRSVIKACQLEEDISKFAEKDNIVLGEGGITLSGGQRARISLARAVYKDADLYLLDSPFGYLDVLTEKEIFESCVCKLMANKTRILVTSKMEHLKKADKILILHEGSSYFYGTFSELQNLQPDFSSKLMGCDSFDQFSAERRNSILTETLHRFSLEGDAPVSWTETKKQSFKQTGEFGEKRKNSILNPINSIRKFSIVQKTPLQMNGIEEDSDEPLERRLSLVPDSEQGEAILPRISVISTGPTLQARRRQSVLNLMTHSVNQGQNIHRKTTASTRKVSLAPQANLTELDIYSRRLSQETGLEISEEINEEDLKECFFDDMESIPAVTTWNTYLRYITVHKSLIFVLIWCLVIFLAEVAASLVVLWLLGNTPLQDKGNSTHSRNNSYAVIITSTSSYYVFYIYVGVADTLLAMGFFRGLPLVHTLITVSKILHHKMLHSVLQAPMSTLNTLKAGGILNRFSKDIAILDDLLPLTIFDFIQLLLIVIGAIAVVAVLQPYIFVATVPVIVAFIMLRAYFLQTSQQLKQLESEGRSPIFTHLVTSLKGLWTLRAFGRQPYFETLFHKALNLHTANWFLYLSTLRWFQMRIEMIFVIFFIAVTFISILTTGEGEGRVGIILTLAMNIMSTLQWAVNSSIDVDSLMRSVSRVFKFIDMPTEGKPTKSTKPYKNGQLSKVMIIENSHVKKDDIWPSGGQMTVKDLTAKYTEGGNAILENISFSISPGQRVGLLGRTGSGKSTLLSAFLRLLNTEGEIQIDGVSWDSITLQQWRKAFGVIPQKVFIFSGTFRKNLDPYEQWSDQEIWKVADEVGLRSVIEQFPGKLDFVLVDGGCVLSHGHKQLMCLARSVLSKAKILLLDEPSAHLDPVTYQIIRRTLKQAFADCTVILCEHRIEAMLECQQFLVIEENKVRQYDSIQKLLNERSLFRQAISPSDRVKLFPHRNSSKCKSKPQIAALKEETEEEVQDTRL", "experiment": "Patch-clamp recording of delF508-CFTR currents in excised inside-out patches of transfected CHO cells", "source_text": "as §1, §2, §3, §4, §5"}, "delF508-CFTR [2]": {"target": "T2, delF508-CFTR", "experiment": "Western blot of delF508-CFTR membrane (surface) expression, Band C", "design": "delF508 stably-transfected C127 cells were cultured in DMEM with 10% FBS in 6-well plates; expressed in transfected cells; host or cells: C127 cells stably expressing delF508-CFTR", "details": "for surface expression of delF508-CFTR (Band C, corrected to vimentin, DMSO = 100): C127 cells", "source_text": "The amount of CFTR proteins in the cell membrane can be determined with Western blot analysis. Like all membrane proteins in the cell, the CFTR protein is synthesized in the endoplasmic reticulum (ER), translocated to the Golgi apparatus for glycosylation before trafficked to the plasma membrane. Because of the addition of complex sugar molecules to CFTR, the molecular weight of “mature” or post-Golgi CFTR in the plasma membrane is higher than that of newly synthesized proteins in the ER. Thus, in Western blot, it is possible to discern two distinct bands: band C representing high molecular weight, mature CFTR, and band B low molecular weight, immature CFTR. While wild-type proteins are present mostly as band C, Class II disease-associated mutations such as delF508 causes a drastic diminution of band C, resulting in an effective decrease of N in the formula N×Po×i. The effects of the reagents (or CFTR correctors) that enhance band C can thus be quantitatively assessed with the Western blot analysis. By the same token, any interactions between different compounds, with positive or negative impact on band C, can be determined with this assay.\nWestern blot experiments were carried out in both transient expression system (CHO cells) and a stable cell line (C127 cells). CHO cells, grown in 35 mm dishes, were transfected with delF508-CFTR construct in pcDNA plasmids using X-tremeGENE (Roche). Six hours after transfection, tested compounds were added to the medium. In case of delF508-CFTR-expressing stable C127 cells, compounds were added to the medium at about 30% confluence. In both cases, cells were lysed 18 hours post drug treatment using 1×SDS loading buffer. Cell lysates were sheared by pushed through 18G needles. Whole cell lysate were separated in 4˜20% gradient gels (Bio-Rad Laboratories) and transferred onto nitrocellulose membranes. The membranes were blocked with 5% milk in TBST buffer (20 mM Tris, 137 mM NaCl, 0.1% Tween 20) at 4° C. overnight. The membranes were then probed with anti-CFTR antibody (AB596 from the Cystic Fibrosis Foundation) and anti-vimentin antibody as a control (Santa Cruz Biotechnology) at room temperature for two hours. The membranes were washed with TBST five times and then incubated with anti-mouse IgG, HRP-linked antibody (Cell Signaling Technology) at room temperature for one hour. The membranes were washed three times with TBST and developed with chemiluminescence reagent (Thermo Scientific). The luminescence was detected and quantified by a Molecular Image Chemi Doc (Bio-Rad Laboratories).\nFor Western blotting experiments, delF508 stably-transfected C127 cells were cultured in DMEM with 10% FBS in 6-well plates. Different tested compounds were added to the culture medium within 24 hours of passage to the desired concentration. Cells were lysed 18 hours post drug treatment using 1×SDS loading buffer. Cell lysates were sheared by pushed through 18G needles. Whole cell lysates were separated in 4-20% gradient gels (Bio-Rad Laboratories) and transferred onto nitrocellulose membranes. The membranes were blocked with 5% milk in TBST buffer (20 mM Tris, 137 mM NaCl, 0.1% Tween 20) at 4° C. overnight. The membranes were then probed with anti-CFTR antibody (AB660 from CFTR foundation) and anti-vimentin antibody as a loading control (Santa Cruz Biotechnology) at room temperature for two hours. The membranes were washed with TBST five times and then incubated with anti-mouse IgG, HRP linked antibody (Cell Signaling Technology) at room temperature for one hour. The membranes were washed three times with TBST and developed with chemiluminescence reagent (Thermo Scientific). The luminescence was detected by a Molecular Image Chemi Doc (Bio-Rad Laboratories). […]"}}}
{"molecule": "CNCCCCOc1ccc(-c2n[nH]c3cc(Br)ccc23)c(F)c1", "note": "[LZH-00025, 4-(4-(6-bromo-1H-indazol-3-yl)-3-fluorophenoxy)-N-methylbutan-1-amine]", "values": [{"measurement": "fold increase of G551D-CFTR currents (ILZH+ATP+VX-770/IATP)", "setting": "G551D-CFTR; combined application with VX-770, 0.2 μM LZH compound", "result": "8.0 ± 1.0, N = 3 fold"}, {"measurement": "fold increase of G551D-CFTR currents (ILZH+ATP+VX-770/IATP)", "setting": "G551D-CFTR; combined application with VX-770, 1 μM LZH compound", "result": "11.0 ± 2.9, N = 4 fold"}, {"measurement": "fold increase of G551D-CFTR currents (ILZH+ATP+VX-770/IATP)", "setting": "G551D-CFTR; combined application with VX-770, 5 μM LZH compound", "result": "9.7 ± 0.7, N = 4 fold"}, {"measurement": "fold increase of G551D-CFTR currents (ILZH+ATP/IATP)", "setting": "G551D-CFTR; 1 μM", "result": "2.1 ± 0.2, N = 11 fold"}, {"measurement": "fold increase of G551D-CFTR currents (ILZH+ATP/IATP)", "setting": "G551D-CFTR; 5 μM", "result": "4.9 ± 0.7, N = 14 fold"}, {"measurement": "fold increase of G551D-CFTR currents (ILZH+ATP/IATP)", "setting": "G551D-CFTR; 20 μM", "result": "7.4 ± 0.5, N = 8 fold"}, {"measurement": "fold increase of delF508-CFTR currents (ILZH+ATP+VX-770/IATP)", "setting": "delF508-CFTR [1]; combined application with VX-770 (200 nM), 2.5 μM LZH compound", "result": "7.7 ± 2.0, N = 3 fold"}, {"measurement": "fold increase of delF508-CFTR currents (ILZH+ATP+VX-770/IATP)", "setting": "delF508-CFTR [1]; combined application with VX-770, 0.5 μM LZH compound", "result": "7.3 ± 0.8, N = 3 fold"}, {"measurement": "fold increase of delF508-CFTR currents (ILZH+ATP/IATP)", "setting": "delF508-CFTR [1]; single application, 5 μM", "result": "3.6 ± 0.9, N = 4 fold"}, {"measurement": "surface expression of delF508-CFTR (Band C, corrected to vimentin, DMSO = 100)", "setting": "delF508-CFTR [2]; 3 μM VX-809 + 0.1 μM LZH compound, lane 5", "result": "263 ± 27, N = 4"}, {"measurement": "surface expression of delF508-CFTR (Band C, corrected to vimentin, DMSO = 100)", "setting": "delF508-CFTR [2]; 3 μM VX-809 + 0.5 μM LZH compound, lane 4", "result": "323 ± 14, N = 4"}, {"measurement": "surface expression of delF508-CFTR (Band C, corrected to vimentin, DMSO = 100)", "setting": "delF508-CFTR [2]; 3 μM VX-809 + 5 μM LZH compound, lane 3", "result": "300 ± 42, N = 4"}, {"measurement": "influence on the effect of Lumacaftor (VX-809) on membrane expression of delF508-CFTR (words)", "setting": "delF508-CFTR [2]; added to 3 μM VX-809", "result": "retains or even enhances the effect of Lumacaftor"}]}
